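These data come from cells grown in 96-well plates and exposed to compound for 48 hours at five concentrations. GI50 is the concentration that inhibits growth by half.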 Activity calls are given as the source filed them. Rule as the data show it: active = GI50 up to about 1.1 µM and inactive = higher. Numbered stars: 1 amine (or outer) side, 2 acyl side, 3 side chain; on linkers, the order of the positions; unused ones are H or OH. Bridge positions count the residues as written; N and C are the ends. Square brackets hold non-standard residues; d marks the D form. Peptide text beside a SMILES is read from it. I, II: the chains in the order shown. Actinocin(9to1) = Cc1c2oc3c(C)ccc(C(=O)[*:1])c3nc-2c(C(=O)[*:2])c(N)c1=O; X48 = O=C1CC(C(=O)[*:2])N([*:1])C1; NMeV = CN[CH](C(=O)O)C(C)C; Sar = CNCC(=O)O
Key:
Assay in all cases: inhibition of tumour cell growth, NCI panel, 48 h
[1] = tested on: EKVX
[2] = tested on: HCC 2998
[3] = tested on: HCT-116
[4] = tested on: HOP-62
[5] = tested on: HOP-92
[6] = tested on: IGROV-1
[7] = tested on: K562
[8] = tested on: M14
[9] = tested on: MDA-MB-231
[10] = tested on: Malme-3M
[11] = tested on: NCI-H226
[12] = tested on: OVCAR-3
[13] = tested on: RPMI-8226
[14] = tested on: SK-MEL-5
[15] = tested on: TK-10
[16] = tested on: UACC-62

| SMILES | GI50 [1] | GI50 [2] | GI50 [3] | GI50 [4] | GI50 [5] | GI50 [6] | GI50 [7] | GI50 [8] | GI50 [9] | GI50 [10] | GI50 [11] | GI50 [12] | GI50 [13] | GI50 [14] | GI50 [15] | GI50 [16] |
| --- | --- | --- | --- | --- | --- | --- | --- | --- | --- | --- | --- | --- | --- | --- | --- | --- |
| CCOC(=O)C(NC(=O)c1ccccc1)(N1CCOCC1)C(F)(F)F (stereo not given) | > 100 µM (inactive) | > 100 µM (inactive) | > 100 µM (inactive) | > 100 µM (inactive) | > 100 µM (inactive) | > 100 µM (inactive) | > 100 µM (inactive) | > 100 µM (inactive) | > 100 µM (inactive) | > 100 µM (inactive) | > 100 µM (inactive) | > 100 µM (inactive) | > 100 µM (inactive) | > 100 µM (inactive) | > 100 µM (inactive) | > 100 µM (inactive) |
| Cc1cc(O)c2c(c1)CC(O)C1=C2C(=O)c2c(O)ccc(OC3CC(O)C(OC4CC(OC5CCC(O)C(C)O5)C(O)C(C)O4)C(C)O3)c2C1=O (stereo not given) | 1.89 µM (inactive) | 1.85 µM (inactive) | 1.75 µM (inactive) | 1.59 µM (inactive) | 1.86 µM (inactive) | 1.47 µM (inactive) | 1.63 µM (inactive) | 1.5 µM (inactive) | 1.77 µM (inactive) | 0.789 µM (active) | 1.5 µM (inactive) | 0.662 µM (active) | 0.53 µM (active) | 1.43 µM (inactive) | 2.17 µM (inactive) | 1.68 µM (inactive) |
| COc1ccc([C@H]2[C@H](C)C3=Nc4ccccc4CN32)cc1 | 96.8 µM (inactive) | 41.9 µM (inactive) | 33.8 µM (inactive) | > 100 µM (inactive) | 56.5 µM (inactive) | 63.7 µM (inactive) | 39.2 µM (inactive) | 42.6 µM (inactive) | > 100 µM (inactive) | > 100 µM (inactive) | 85.1 µM (inactive) | > 100 µM (inactive) | 33.7 µM (inactive) | 40.8 µM (inactive) | > 100 µM (inactive) | 57.5 µM (inactive) |
| COc1ccc(OC)c([N+](=O)[O-])c1-c1nc2sccn2c1/C=N/N=C(N)N | > 100 µM (inactive) | 30.4 µM (inactive) | 48.4 µM (inactive) | > 100 µM (inactive) | 23 µM (inactive) | 91.6 µM (inactive) | 43.6 µM (inactive) | > 100 µM (inactive) | 48.6 µM (inactive) | 35.2 µM (inactive) | > 100 µM (inactive) | 58.1 µM (inactive) | 33.5 µM (inactive) | 28.8 µM (inactive) | 51.4 µM (inactive) | 91.8 µM (inactive) |
| Cc1nc2c(O)cc3c4c([nH]c3c2nc1C)C(=O)CCC4 | 6.37 µM (inactive) | 1.71 µM (inactive) | 3.01 µM (inactive) | 5.89 µM (inactive) | 11.2 µM (inactive) | – | 5.06 µM (inactive) | 3.35 µM (inactive) | 7.45 µM (inactive) | 8.93 µM (inactive) | 25.1 µM (inactive) | 2.61 µM (inactive) | 2.24 µM (inactive) | 4.76 µM (inactive) | 3.4 µM (inactive) | 3.66 µM (inactive) |
| CC1CC[C@@]2(OC1)OC1C[C@H]3[C@@H]4C/C(=N\N(C)C)[C@@]5(O)CC(O)CC[C@]5(C)[C@H]4CC[C@]3(C)C1[C@@H]2C (stereo not given in full) | – | 68.5 µM (inactive) | 24.7 µM (inactive) | 41.3 µM (inactive) | 98.2 µM (inactive) | 89.1 µM (inactive) | 38.7 µM (inactive) | > 100 µM (inactive) | 52.1 µM (inactive) | 29.7 µM (inactive) | > 100 µM (inactive) | 43.9 µM (inactive) | 41.6 µM (inactive) | 42 µM (inactive) | 48.9 µM (inactive) | 37.5 µM (inactive) |
| COC(=O)C1(SC)C2CCC3C2CCC31 (stereo not given) | > 100 µM (inactive) | > 100 µM (inactive) | > 100 µM (inactive) | > 100 µM (inactive) | > 100 µM (inactive) | > 100 µM (inactive) | > 100 µM (inactive) | > 100 µM (inactive) | > 100 µM (inactive) | > 100 µM (inactive) | > 100 µM (inactive) | > 100 µM (inactive) | > 100 µM (inactive) | > 100 µM (inactive) | – | – |
| O=C(c1cc(Cl)ccc1Cl)N1CCN(C(=O)c2cc(Cl)ccc2Cl)CC1 | > 100 µM (inactive) | > 100 µM (inactive) | > 100 µM (inactive) | 38.8 µM (inactive) | 67.1 µM (inactive) | > 100 µM (inactive) | > 100 µM (inactive) | > 100 µM (inactive) | > 100 µM (inactive) | > 100 µM (inactive) | > 100 µM (inactive) | > 100 µM (inactive) | > 100 µM (inactive) | 55.6 µM (inactive) | > 100 µM (inactive) | – |
| Cc1ccccc1[P+](C)(c1ccccc1C)c1ccccc1C | 5.07 µM (inactive) | 2.77 µM (inactive) | 6.79 µM (inactive) | 23.9 µM (inactive) | 12.7 µM (inactive) | 14.9 µM (inactive) | – | 7.46 µM (inactive) | 12.6 µM (inactive) | 8.18 µM (inactive) | 14.6 µM (inactive) | 7.94 µM (inactive) | 1.21 µM (inactive) | 4.84 µM (inactive) | 8.26 µM (inactive) | 5.79 µM (inactive) |
| COC(=O)c1cc(C#N)[nH]c1-c1ccsc1 | 74.8 µM (inactive) | > 100 µM (inactive) | > 100 µM (inactive) | > 100 µM (inactive) | > 100 µM (inactive) | > 100 µM (inactive) | 53.1 µM (inactive) | > 100 µM (inactive) | > 100 µM (inactive) | > 100 µM (inactive) | > 100 µM (inactive) | > 100 µM (inactive) | 22.5 µM (inactive) | > 100 µM (inactive) | > 100 µM (inactive) | > 100 µM (inactive) |
| OC(C/C(=N\N=C(/CC(O)(C(F)(F)F)C(F)(F)F)c1ccccc1)c1ccccc1)(C(F)(F)F)C(F)(F)F | > 10 µM (inactive) | > 10 µM (inactive) | > 10 µM (inactive) | > 10 µM (inactive) | > 10 µM (inactive) | > 10 µM (inactive) | > 10 µM (inactive) | > 10 µM (inactive) | > 10 µM (inactive) | > 10 µM (inactive) | > 10 µM (inactive) | > 10 µM (inactive) | > 10 µM (inactive) | > 10 µM (inactive) | > 10 µM (inactive) | > 10 µM (inactive) |
| CC(=O)C1=CN=C2C(=O)N(c3ccccc3)N(C)C12C (stereo not given) | > 100 µM (inactive) | 16.9 µM (inactive) | > 100 µM (inactive) | – | > 100 µM (inactive) | > 100 µM (inactive) | > 100 µM (inactive) | > 100 µM (inactive) | > 100 µM (inactive) | > 100 µM (inactive) | > 100 µM (inactive) | > 100 µM (inactive) | > 100 µM (inactive) | > 100 µM (inactive) | 49.9 µM (inactive) | > 100 µM (inactive) |
| C#CCn1c(=O)c2cc(OC)c(OC)cc2n(CC#C)c1=O | > 10 µM (inactive) | > 10 µM (inactive) | > 10 µM (inactive) | > 10 µM (inactive) | > 10 µM (inactive) | > 10 µM (inactive) | > 10 µM (inactive) | > 10 µM (inactive) | > 10 µM (inactive) | > 10 µM (inactive) | > 10 µM (inactive) | > 10 µM (inactive) | > 10 µM (inactive) | > 10 µM (inactive) | > 10 µM (inactive) | – |
| CN(C)c1ccc(/C=C2\N=C(NN)NC2=O)cc1 | 31.9 µM (inactive) | 80.9 µM (inactive) | 49.8 µM (inactive) | > 100 µM (inactive) | 59.8 µM (inactive) | 75.5 µM (inactive) | 10.1 µM (inactive) | > 100 µM (inactive) | 59.3 µM (inactive) | > 100 µM (inactive) | 78.2 µM (inactive) | 86.3 µM (inactive) | 49.3 µM (inactive) | – | > 100 µM (inactive) | > 100 µM (inactive) |
| COC(=O)[C@@]12CC3CN(Cc4c1[nH]c1ccccc41)C2CC3=O | > 100 µM (inactive) | > 100 µM (inactive) | > 100 µM (inactive) | > 100 µM (inactive) | 26.7 µM (inactive) | > 100 µM (inactive) | > 100 µM (inactive) | > 100 µM (inactive) | > 100 µM (inactive) | > 100 µM (inactive) | > 100 µM (inactive) | > 100 µM (inactive) | > 100 µM (inactive) | – | > 100 µM (inactive) | > 100 µM (inactive) |
| Cc1nc2ccc(S(=O)(=O)Nc3ccc(Cl)cc3)cc2c(=O)n1NC(=O)CNc1ccc(Cl)cc1 | > 100 µM (inactive) | > 100 µM (inactive) | > 100 µM (inactive) | > 100 µM (inactive) | > 100 µM (inactive) | > 100 µM (inactive) | > 100 µM (inactive) | > 100 µM (inactive) | > 100 µM (inactive) | > 100 µM (inactive) | > 100 µM (inactive) | > 100 µM (inactive) | > 100 µM (inactive) | – | > 100 µM (inactive) | > 100 µM (inactive) |
| Cc1c2oc3c(C)ccc(C(=O)NC4C(=O)NC(C(C)C)C(=O)N5CC(=O)CC5C(=O)N(C)CC(=O)N(C)C(C(C)C)C(=O)OC4C)c3nc-2c(C(=O)NC2C(=O)NC(C(C)C)C(=O)N3CC(=O)CC3C(=O)N(C)CC(=O)N(C)C(C(C)C)C(=O)OC2C)c(N)c1=O (stereo not given) (I: TV[X48][Sar][NMeV] / II: TV[X48][Sar][NMeV]; ester I:1-I:C, II:1-II:C; linker I:N-II:N via Actinocin(9to1); configuration not given here) | > 1 µM (active) | > 1 µM (active) | > 1 µM (active) | > 1 µM (active) | > 1 µM (active) | > 1 µM (active) | > 1 µM (active) | > 1 µM (active) | > 1 µM (active) | > 1 µM (active) | > 1 µM (active) | > 1 µM (active) | > 1 µM (active) | > 1 µM (active) | > 1 µM (active) | – |

From ChEMBL document CHEMBL1201862, “PubChem BioAssay data set” (2004)
